These results are taken from PMC6838683, “Discovery of Human Signaling Systems: Pairing Peptides to G Protein-Coupled Receptors” (Cell, 2019).

What all share (format): cell-based
The target in assay [1] is GPR55 (Homo sapiens, UniProt Q9Y2T6). In words: Real-time receptor internalization (TR-FRET), concentration-response. Particulars: read-out: pEC50, internalization, GPR55 (converted). Details: hIL-2Ra signal peptide (N); expressed in transfected cells. The protocol:
48 hr prior to parallel assaying, SNAP-tagged oGPCR cells were plated (10,000 cells/well) in fibronectin-coated 384-well Epic biosensor microplates (Corning) and poly-D-lysine coated white 384-well plates (for internalization assays). SNAP- GLP-1 receptor was plated alongside orphan receptor cells as an internal assay control for internalization assays. Receptor-expression was induced with 0.1 μg/ml doxycycline.
A TR-FRET real-time internalization assay was used to examine peptide-dependent changes in orphan receptor localization as described previously ([Foster and Bräuner-Osborne, 2018]). Surface-expressed SNAP-tagged receptors were labeled with a cell-impermeable luminescent terbium cryptate (100 nM SNAP Lumi4-Tb; Cisbio, France) for 1 hr at 37°C. Cells were washed to remove excess terbium and incubated with fluorescein-O-acetic acid (100 μM; Sigma Aldrich) for 5 min at 37°C. Peptides were added as for DMR assays, and internalization responses were recorded for 60 min at 37°C using an EnVision 2104 Multimode plate reader (PerkinElmer). 100 nM GLP-1 was used as a positive control for SNAP-GLP1R internalization. Real-time internalization responses were calculated based on TR-FRET (excitation 340 nm; emission 520 nm and 615 nm), and were expressed as the ratio between donor (terbium) and acceptor (fluorescein) emission. For peptide screening analysis (both DMR and internalization assays), we calculated the area under the curve from the real-time traces. […] Validation experiments for receptor internalization were performed as above. Internalization data was processed in MS-Excel and area under the curve was used to generate concentration-response curves using GraphPad Prism 7.0. Data represent mean ± standard error of the mean (SEM) from at least 3 biologically independent experiments.
For orientation: In TR-FRET formats the signal depends on donor and acceptor labels being close together.

The target in assay [2] is T1, GPR1 (Homo sapiens, UniProt P46091).
T1 sequence (P46091 1-355): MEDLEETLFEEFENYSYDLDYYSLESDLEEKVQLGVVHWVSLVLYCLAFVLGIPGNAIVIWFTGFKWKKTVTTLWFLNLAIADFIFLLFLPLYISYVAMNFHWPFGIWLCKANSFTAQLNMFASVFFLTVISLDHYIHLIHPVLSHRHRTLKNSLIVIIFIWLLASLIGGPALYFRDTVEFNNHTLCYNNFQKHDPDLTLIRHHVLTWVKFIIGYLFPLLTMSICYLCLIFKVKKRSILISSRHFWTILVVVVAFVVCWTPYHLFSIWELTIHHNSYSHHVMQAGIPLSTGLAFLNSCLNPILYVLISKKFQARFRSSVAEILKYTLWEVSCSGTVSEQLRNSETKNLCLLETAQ
Briefly: β-arrestin recruitment (PathHunter). Particulars: receptor GPR1, mean, SEM and n (2-3); for EC50: read-out: b-arrestin recruitment assays (PathHunter) pEC50 (converted). On the procedure:
PathHunter eXpress Assays (DiscoverX) were performed in 384-well format according to the manufacturer’s recommendations. GPR1 cells were incubated with peptides for 90 min and luminescence measured using an EnSpire 2300 Multimode plate reader (PerkinElmer).

The target in assay [3] is T1, GPR1. In words: β-arrestin recruitment (Tango), validation. Details: host or cells: HTLA cells (HEK293-derived). Particulars: receptor GPR1, mean, SEM and n (2-3); for EC50: read-out: b-arrestin recruitment assays (Tango) pEC50 (converted). (In general: Activated receptors often draw arrestin, which recruitment assays turn into a signal.)
Assay [4] concerns the target T2, BB3 (Homo sapiens, UniProt P32247).
T2 construct: hIL-2Ra signal peptide (N); expressed in transfected cells
T2 sequence (P32247 2-399 limits assumed): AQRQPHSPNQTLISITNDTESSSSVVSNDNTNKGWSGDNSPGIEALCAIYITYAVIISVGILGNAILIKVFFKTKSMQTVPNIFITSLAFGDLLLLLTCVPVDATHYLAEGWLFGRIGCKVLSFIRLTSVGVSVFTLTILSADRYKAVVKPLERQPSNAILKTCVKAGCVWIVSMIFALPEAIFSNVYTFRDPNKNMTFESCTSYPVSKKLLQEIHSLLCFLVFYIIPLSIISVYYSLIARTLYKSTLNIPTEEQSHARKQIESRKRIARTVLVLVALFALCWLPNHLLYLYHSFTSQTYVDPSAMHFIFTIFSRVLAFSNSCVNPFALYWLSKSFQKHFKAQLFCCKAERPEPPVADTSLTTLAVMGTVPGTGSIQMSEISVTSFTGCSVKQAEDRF
In words: IP1 accumulation (Gq/11), HTRF. Particulars: receptor BB3; mean, SEM and n (2-4); read-out: IP1 accumulation assays pEC50 (converted).

Residues, ends and D or L forms follow the SMILES beside them. No end group written: not given here. A value given as a limit tells only on which side of the number the result lay.

Sequence of GPR55 (Q9Y2T6 2-319 limits assumed): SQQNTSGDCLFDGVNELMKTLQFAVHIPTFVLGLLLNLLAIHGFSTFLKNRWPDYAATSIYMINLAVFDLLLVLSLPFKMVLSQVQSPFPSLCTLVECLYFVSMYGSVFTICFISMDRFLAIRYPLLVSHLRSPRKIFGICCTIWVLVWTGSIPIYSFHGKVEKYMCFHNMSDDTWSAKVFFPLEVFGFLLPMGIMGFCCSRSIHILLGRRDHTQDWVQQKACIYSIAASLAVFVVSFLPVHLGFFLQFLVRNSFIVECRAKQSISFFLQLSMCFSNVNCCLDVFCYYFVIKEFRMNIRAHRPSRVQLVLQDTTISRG

As to `CC[C@H](C)[C@H](NC(=O)[C@H](CC(=O)O)NC(=O)[C@@H](NC(=O)[C@H](Cc1ccc(O)cc1)NC(=O)[C@@H](NC(=O)CNC(=O)[C@H](CC(N)=O)NC(=O)[C@@H](NC(=O)[C@H](CC(C)C)NC(=O)[C@H](Cc1ccc(O)cc1)NC(=O)[C@H](CC(=O)O)NC(=O)[C@H](CC(C)C)NC(=O)[C@H](CCCNC(=N)N)NC(=O)[C@H](CO)NC(=O)[C@H](Cc1ccc(O)cc1)NC(=O)[C@H](CCCNC(=N)N)NC(=O)[C@@H](N)CCCCN)[C@@H](C)CC)[C@@H](C)CC)C(C)C)C(=O)O` [Peptide 114] (H-KRYSRLDYLINGIYVDI-OH; N-terminus assumed), the EC50 in assay [1] was over 10000 nM.
Take `CC(C)C[C@H](NC(=O)[C@H](CCCNC(=N)N)NC(=O)[C@H](CC(=O)O)NC(=O)[C@H](CC(C)C)NC(=O)[C@@H]1CCCN1C(=O)[C@H](CO)NC(=O)CNC(=O)[C@H](Cc1ccccc1)NC(=O)CNC(=O)[C@H](CO)NC(=O)[C@H](Cc1ccccc1)NC(=O)[C@H](CO)NC(=O)[C@H](CCCNC(=N)N)NC(=O)[C@@H](N)CCCCN)C(=O)N[C@@H](CO)C(=O)N[C@@H](C)C(=O)NCC(=O)N[C@@H](CO)C(=O)N[C@H](C(=O)N[C@@H](CC(=O)O)C(=O)N[C@@H](Cc1c[nH]cn1)C(=O)N[C@@H](CCCCN)C(=O)NCC(=O)N[C@@H](CCCCN)C(=O)N[C@@H](CCC(N)=O)C(=O)N[C@@H](CCCNC(=N)N)C(=O)N[C@@H](CCCCN)C(=O)N[C@H](C(=O)N[C@H](C(=O)N[C@@H](CC(=O)O)C(=O)N[C@@H](Cc1c[nH]cn1)C(=O)N1CCC[C@H]1C(=O)O)C(C)C)C(C)C)C(C)C` [Peptide 141.3] (H-KRSFSGFGSPLDRLSAGSVDHKGKQRKVVDHP-OH): the EC50 in assay [2] is 550 nM; in assay [3], 2630 nM.
For the molecule `CC(C)C[C@H](NC(=O)[C@H](CCCNC(=N)N)NC(=O)[C@H](CC(=O)O)NC(=O)[C@H](CC(C)C)NC(=O)[C@@H]1CCCN1C(=O)[C@H](CO)NC(=O)CNC(=O)[C@H](Cc1ccccc1)NC(=O)CNC(=O)[C@H](CO)NC(=O)[C@H](Cc1ccccc1)NC(=O)[C@@H](N)CO)C(=O)N[C@@H](CO)C(=O)N[C@@H](C)C(=O)NCC(=O)N[C@@H](CO)C(=O)N[C@H](C(=O)N[C@@H](CC(=O)O)C(=O)N[C@@H](Cc1c[nH]cn1)C(=O)N[C@@H](CCCCN)C(=O)NCC(=O)N[C@@H](CCCCN)C(=O)N[C@@H](CCC(N)=O)C(=O)O)C(C)C` [Peptide 141.5] (H-SFSGFGSPLDRLSAGSVDHKGKQ-OH), in assay [2], the “b-arrestin recruitment assays (PathHunter) Emax (fold change)” value is on record as 6.2 fold change and the EC50 is 20900 nM. In addition, in assay [3], the “b-arrestin recruitment assays (Tango) Emax (fold change)” value is 13.6 fold change and the EC50 was 16200 nM.
As for `CC(C)C[C@H](NC(=O)[C@H](CCCNC(=N)N)NC(=O)[C@H](CC(=O)O)NC(=O)[C@H](CC(C)C)NC(=O)[C@@H]1CCCN1C(=O)[C@H](CO)NC(=O)CNC(=O)[C@H](Cc1ccccc1)NC(=O)CNC(=O)[C@H](CO)NC(=O)[C@H](Cc1ccccc1)NC(=O)[C@@H](N)CO)C(=O)N[C@@H](CO)C(=O)N[C@@H](C)C(=O)NCC(=O)N[C@@H](CO)C(=O)N[C@H](C(=O)N[C@@H](CC(=O)O)C(=O)N[C@@H](Cc1c[nH]cn1)C(=O)N[C@@H](CCCCN)C(=O)NCC(=O)N[C@@H](CCCCN)C(=O)N[C@@H](CCC(N)=O)C(=O)N[C@@H](CCCNC(=N)N)C(=O)N[C@@H](CCCCN)C(=O)N[C@H](C(=O)N[C@H](C(=O)N[C@@H](CC(=O)O)C(=O)N[C@@H](Cc1c[nH]cn1)C(=O)N1CCC[C@H]1C(=O)O)C(C)C)C(C)C)C(C)C` [Peptide 141.6] (H-SFSGFGSPLDRLSAGSVDHKGKQRKVVDHP-OH), the EC50 is 3160 nM in assay [2] and 16600 nM in assay [3].
Take `CSCC[C@H](NC(=O)[C@H](CCCCN)NC(=O)[C@@H](NC(=O)[C@H](CC(C)C)NC(=O)[C@@H](NC(=O)[C@@H](NC(=O)CNC(=O)CNC(=O)CNC(=O)[C@H](C)NC(=O)[C@@H]1CCCN1C(=O)[C@H](CC(C)C)NC(=O)[C@@H]1CCCN1C(=O)[C@@H](N)C(C)C)[C@@H](C)O)C(C)C)[C@@H](C)O)C(=O)N[C@@H](Cc1ccc(O)cc1)C(=O)N1CCC[C@H]1C(=O)N[C@@H](CCCNC(=N)N)C(=O)O` [Peptide 167.2] (H-VPLPAGGGTVLTKMYPR-OH): the EC50 in assay [4] was 525 nM; in assay [2] it was 2290 nM; in assay [3] it was 3020 nM.
For the molecule `CSCC[C@H](NC(=O)[C@H](Cc1ccc(O)cc1)NC(=O)[C@@H](N)CC(=O)O)C(=O)NCC(=O)N[C@@H](Cc1c[nH]c2ccccc12)C(=O)N[C@@H](CCSC)C(=O)N[C@@H](CC(=O)O)C(=O)N[C@@H](Cc1ccccc1)C(N)=O` [Peptide 194.1], the EC50 in assay [2] was 1.45 nM; in assay [3], 8510 nM.
For the molecule `C[C@H](NC(=O)[C@@H](N)CCCCN)C(=O)N1CCC[C@H]1C(=O)N[C@@H](CO)C(N)=O` [Peptide 194.3] (H-KAPS-NH2), the EC50 in assay [2] is 0.049 nM; in assay [3] it was 0.00191 nM.
Take `CC[C@H](C)[C@H](NC(=O)[C@H](CCCNC(=N)N)NC(=O)[C@H](Cc1c[nH]cn1)NC(=O)[C@H](CO)NC(=O)[C@@H]1CCCN1C(=O)[C@H](CC(=O)O)NC(=O)[C@H](CC(C)C)NC(=O)[C@H](CC(N)=O)NC(=O)[C@H](CCC(N)=O)NC(=O)[C@H](CC(C)C)NC(=O)[C@H](CC(N)=O)NC(=O)[C@H](CCCCN)NC(=O)[C@@H](NC(=O)[C@@H](NC(=O)[C@H](CO)NC(=O)[C@H](CCSC)NC(=O)[C@H](CCCNC(=N)N)NC(=O)CNC(=O)[C@H](CO)NC(=O)[C@@H]1CCCN1C(=O)[C@H](C)NC(=O)[C@@H](N)CCCCN)[C@@H](C)CC)C(C)C)C(=O)N[C@@H](CO)C(=O)N[C@@H](CC(=O)O)C(=O)N[C@@H](CCCNC(=N)N)C(=O)N[C@@H](CC(=O)O)C(=O)N[C@@H](Cc1ccc(O)cc1)C(=O)N[C@@H](CCSC)C(=O)NCC(=O)O` [Peptide 194.4] (H-KAPSGRMSIVKNLQNLDPSHRISDRDYMG-OH): the EC50 is 0.224 nM in assay [2] and 93.3 nM in assay [3].
Regarding `CC[C@H](C)[C@H](NC(=O)[C@H](CCCNC(=N)N)NC(=O)[C@H](Cc1c[nH]cn1)NC(=O)[C@H](CO)NC(=O)[C@@H]1CCCN1C(=O)[C@H](CC(=O)O)NC(=O)[C@H](CC(C)C)NC(=O)[C@H](CC(N)=O)NC(=O)[C@H](CCC(N)=O)NC(=O)[C@H](CC(C)C)NC(=O)[C@H](CC(N)=O)NC(=O)[C@H](CCCCN)NC(=O)[C@@H](NC(=O)[C@@H](NC(=O)[C@H](CO)NC(=O)[C@H](CCSC)NC(=O)[C@H](CCCNC(=N)N)NC(=O)CNC(=O)[C@H](CO)NC(=O)[C@@H]1CCCN1C(=O)[C@H](C)NC(=O)[C@@H](N)CCCCN)[C@@H](C)CC)C(C)C)C(=O)N[C@@H](CO)C(=O)N[C@@H](CC(=O)O)C(=O)N[C@@H](CCCNC(=N)N)C(=O)O` [Peptide 194.5] (H-KAPSGRMSIVKNLQNLDPSHRISDR-OH), the EC50 in assay [2] is 0.135 nM; in assay [3], 22.9 nM.
“KAPSGRMSIVKNLQNLDPSHRISDRDYMGWMDFGRRSAEEYEYPS [Peptide 194.6]”: in assay [2], the “b-arrestin recruitment assays (PathHunter) Emax (fold change)” value came to 4.0 fold change and the EC50 was 28200 nM. In assay [3], the “b-arrestin recruitment assays (Tango) Emax (fold change)” value worked out at 2.0 fold change and the EC50 was 75.9 nM.
For “KRSFSGFGSPLDRLSAGSVDHKGKQRKVVDHPKRRFGIPMDRI [Peptide 141.4]”, the EC50 in assay [2] was 39.8 nM; in assay [3] it was 10200 nM.
Consider “SFSGFGSPLDRLSAGSVDHKGKQRKVVDHPKRRFGIPMDRI-NH2 [Peptide 141.7]”, for which the EC50 in assay [2] is 575 nM; in assay [3], 26900 nM.
